The source of these data is PMC5917001, “Counter-ion effect on antistaphylococcal activity and cytotoxicity of selected antimicrobial peptides” (Amino Acids, 2018).

Where no end group is shown, it is not given here. A value given as a limit tells only on which side of the number the result lay.

For orientation: MIC means the lowest concentration that inhibits growth of the organism.

Data set [1] relates to human red blood cells (RBCs).
Method: Fresh human red blood cells (RBCs) with EDTA as anticoagulant were rinsed three times with phosphate-buffer saline (PBS) by centrifugation at 800 × g for 10 min and resuspended in PBS. […] Then, the stock solution of RBCs was added to reach a final volume of 100 µL with 4% concentration of erythrocytes (v/v). The control wells for 0% hemolysis and 100% hemolysis consisted of RBCs suspended in PBS and 1% of Triton X–100, respectively. Subsequently, the plates were incubated for 60 min at 37 °C and then centrifuged at 800 × g for 10 min at 4 °C (Sorvall ST 16R Centrifuge, Thermo Scientific). After centrifugation, the supernatant was carefully resuspended to new microtiter plates and the release of hemoglobin was monitored by measurement of absorbance at 540 nm (Multiskan™ GO Microplate Spectrophotometer, Thermo Scientific). All experiments were conducted in triplicate.
The subject of data set [2] is S. aureus (29): reference (5) and clinical (24) strains. As to conditions: for Mean value of MIC: mean over 29 S. aureus strains (Table 5). Here is the method: Microbiological assays were performed using reference and clinical strains of Staphylococcus aureus. Minimal inhibitory concentrations (MIC) were determined by broth microdilution method on 96-well polystyrene plates according to Clinical and Laboratory Standards Institute (CLSI) recommendations [Clinical and Laboratory Standards Institute (CLSI) [2012]]. […] All plates were incubated for 18 h at 37 °C. […] Reference strains of S. aureus: ATCC 6538, ATCC 6538/P, ATCC 9144, ATCC 12598, and ATCC 25923 were obtained from the Polish Collection of Microorganisms (PCM, Polish Academy of Sciences, Wrocław), whereas 24 clinical strains were isolated from the patients of the Clinic of Dermatology, Venereology and Allergology (Medical University of Gdańsk). Nine strains were characterized as methicillin-resistant (MRSA). Preliminary identification and detection was conducted on the ChromID MRSA/ChromID S. aureus biplate (bioMérieux) for the simultaneous detection of S. aureus and methicillin-resistant S. aureus (MRSA). All experiments were conducted at least in triplicate.
To asses an overall activity of peptides, the mean MIC values were calculated.

For data set [3] the following is noted: prolonged storage; in words; ref Nayan Desai [2013]; cited from earlier work.
The next data set relates to S. aureus 017N (MRSA). The class given is cell-based, Staphylococcus aureus. Particulars: clinical strain, broth microdilution, 0.5 × 10^5 CFU/mL, 18 h, 37 °C, at least triplicate. On the procedure:
(§1) Microbiological assays were performed using reference and clinical strains of Staphylococcus aureus. Minimal inhibitory concentrations (MIC) were determined by broth microdilution method on 96-well polystyrene plates according to Clinical and Laboratory Standards Institute (CLSI) recommendations [Clinical and Laboratory Standards Institute (CLSI) [2012]]. For this purpose, the initial inoculums of 0.5 × 10^5 CFU/mL of bacteria were exposed to a range of concentrations of the peptides (0.5–256 µg/mL). All plates were incubated for 18 h at 37 °C. MIC was taken as the lowest concentration of the compound at which the growth of bacteria was not observed. Reference strains of S. aureus: ATCC 6538, ATCC 6538/P, ATCC 9144, ATCC 12598, and ATCC 25923 were obtained from the Polish Collection of Microorganisms (PCM, Polish Academy of Sciences, Wrocław), whereas 24 clinical strains were isolated from the patients of the Clinic of Dermatology, Venereology and Allergology (Medical University of Gdańsk). Nine strains were characterized as methicillin-resistant (MRSA). Preliminary identification and detection was conducted on the ChromID MRSA/ChromID S. aureus biplate (bioMérieux) for the simultaneous detection of S. aureus and methicillin-resistant S. aureus (MRSA). All experiments were conducted at least in triplicate.

The test system of the next data set is S. aureus 002S. The class given is cell-based, Staphylococcus aureus. Particulars: clinical strain, broth microdilution, 0.5 × 10^5 CFU/mL, 18 h, 37 °C, at least triplicate. On the procedure:
as §1

A further data set relates to S. aureus 051S. Format: cell-based, Staphylococcus aureus. As to conditions: clinical strain, broth microdilution, 0.5 × 10^5 CFU/mL, 18 h, 37 °C, at least triplicate. Here is the method: as §1
A general note: Dilution methods test growth across graded concentrations, often in twofold steps.

The test system of the next data set is S. aureus 001N (MRSA). Format: cell-based, Staphylococcus aureus. As to conditions: clinical strain, broth microdilution, 0.5 × 10^5 CFU/mL, 18 h, 37 °C, at least triplicate. Here is the method:
as §1

A further data set relates to S. aureus 045N. Format: cell-based, Staphylococcus aureus. Particulars: clinical strain, broth microdilution, 0.5 × 10^5 CFU/mL, 18 h, 37 °C, at least triplicate. Here is the method:
as §1

The subject of another data set is S. aureus 015N (MRSA). The class given is cell-based, Staphylococcus aureus. Particulars: clinical strain, broth microdilution, 0.5 × 10^5 CFU/mL, 18 h, 37 °C, at least triplicate. On the procedure: as §1
The next data set relates to S. aureus 002N. Format: cell-based, Staphylococcus aureus. As to conditions: clinical strain, broth microdilution, 0.5 × 10^5 CFU/mL, 18 h, 37 °C, at least triplicate. On the procedure: as §1
The subject of another data set is S. aureus ATCC 12598. Format: cell-based, Staphylococcus aureus. Particulars: ATCC 12598, reference strain; broth microdilution, 0.5 × 10^5 CFU/mL, 18 h, 37 °C, at least triplicate. Here is the method: as §1
The subject of a further data set is S. aureus ATCC 25923. Format: cell-based, Staphylococcus aureus. Particulars: ATCC 25923, reference strain; broth microdilution, 0.5 × 10^5 CFU/mL, 18 h, 37 °C, at least triplicate. Here is the method:
as §1

The next data set concerns S. aureus 024N (MRSA). The class given is cell-based, Staphylococcus aureus. As to conditions: clinical strain, broth microdilution, 0.5 × 10^5 CFU/mL, 18 h, 37 °C, at least triplicate. Here is the method: as §1
The next data set has as its system S. aureus ATCC 6538. The class given is cell-based, Staphylococcus aureus. Particulars: ATCC 6538, reference strain; broth microdilution, 0.5 × 10^5 CFU/mL, 18 h, 37 °C, at least triplicate. Here is the method:
as §1

The subject of the next data set is S. aureus 017S (MRSA). Format: cell-based, Staphylococcus aureus. Particulars: clinical strain, broth microdilution, 0.5 × 10^5 CFU/mL, 18 h, 37 °C, at least triplicate. Here is the method: as §1
The next data set concerns S. aureus 048S. The class given is cell-based, Staphylococcus aureus. Particulars: clinical strain, broth microdilution, 0.5 × 10^5 CFU/mL, 18 h, 37 °C, at least triplicate. On the procedure:
as §1

The subject of another data set is S. aureus 005S. The class given is cell-based, Staphylococcus aureus. As to conditions: clinical strain, broth microdilution, 0.5 × 10^5 CFU/mL, 18 h, 37 °C, at least triplicate. On the procedure:
as §1

A further data set has as its system S. aureus ATCC 9144. Format: cell-based, Staphylococcus aureus. As to conditions: ATCC 9144, reference strain; broth microdilution, 0.5 × 10^5 CFU/mL, 18 h, 37 °C, at least triplicate. On the procedure: as §1
Another data set has as its system S. aureus K50S. Format: cell-based, Staphylococcus aureus. Particulars: clinical strain, broth microdilution, 0.5 × 10^5 CFU/mL, 18 h, 37 °C, at least triplicate. On the procedure:
as §1

The next data set concerns S. aureus 030N. Format: cell-based, Staphylococcus aureus. As to conditions: clinical strain, broth microdilution, 0.5 × 10^5 CFU/mL, 18 h, 37 °C, at least triplicate. Here is the method:
as §1

For a further data set, the system named is S. aureus ATCC 6538/P. The class given is cell-based, Staphylococcus aureus. Particulars: reference strain, broth microdilution, 0.5 × 10^5 CFU/mL, 18 h, 37 °C, at least triplicate. Here is the method: as §1
Another data set has as its system S. aureus 001S (MRSA). Format: cell-based, Staphylococcus aureus. As to conditions: clinical strain, broth microdilution, 0.5 × 10^5 CFU/mL, 18 h, 37 °C, at least triplicate. Here is the method:
as §1

The next data set deals with S. aureus 033N. The class given is cell-based, Staphylococcus aureus. Particulars: clinical strain, broth microdilution, 0.5 × 10^5 CFU/mL, 18 h, 37 °C, at least triplicate. On the procedure: as §1
The next data set deals with S. aureus 013S. The class given is cell-based, Staphylococcus aureus. As to conditions: clinical strain, broth microdilution, 0.5 × 10^5 CFU/mL, 18 h, 37 °C, at least triplicate. Here is the method:
as §1

The subject of another data set is S. aureus 053N. The class given is cell-based, Staphylococcus aureus. As to conditions: clinical strain, broth microdilution, 0.5 × 10^5 CFU/mL, 18 h, 37 °C, at least triplicate. On the procedure:
as §1

In a further data set the test system is S. aureus K46N. Format: cell-based, Staphylococcus aureus. As to conditions: clinical strain, broth microdilution, 0.5 × 10^5 CFU/mL, 18 h, 37 °C, at least triplicate. On the procedure: as §1
In a further data set the test system is S. aureus 060S. Format: cell-based, Staphylococcus aureus. Particulars: clinical strain, broth microdilution, 0.5 × 10^5 CFU/mL, 18 h, 37 °C, at least triplicate. On the procedure:
as §1

A further data set relates to S. aureus 043SC (MRSA). The class given is cell-based, Staphylococcus aureus. As to conditions: clinical strain, broth microdilution, 0.5 × 10^5 CFU/mL, 18 h, 37 °C, at least triplicate. Here is the method:
as §1

For another data set, the system named is S. aureus K19N. Format: cell-based, Staphylococcus aureus. Particulars: clinical strain, broth microdilution, 0.5 × 10^5 CFU/mL, 18 h, 37 °C, at least triplicate. Here is the method:
as §1

The next data set deals with S. aureus 039N. Format: cell-based, Staphylococcus aureus. Particulars: clinical strain, broth microdilution, 0.5 × 10^5 CFU/mL, 18 h, 37 °C, at least triplicate. Here is the method:
as §1

A further data set concerns S. aureus 004N (MRSA). The class given is cell-based, Staphylococcus aureus. Particulars: clinical strain, broth microdilution, 0.5 × 10^5 CFU/mL, 18 h, 37 °C, at least triplicate. Here is the method: as §1
The test system of the next data set is S. aureus 051N (MRSA). The class given is cell-based, Staphylococcus aureus. As to conditions: clinical strain, broth microdilution, 0.5 × 10^5 CFU/mL, 18 h, 37 °C, at least triplicate. On the procedure:
as §1

On to FLPLIGRVLSGIL-NH2 [Temporin A], for which the hemolysis in data set [1] (at 256 µg/mL, human RBCs 4% (v/v) in PBS, 60 min, 37 °C, absorbance 540 nm, 100% = 1% Triton X-100, triplicate) is given as not above 4%. For the same substance, the “hemolysis of RBCs” value in data set [1] (human RBCs, in words) is “almost undetectable”. The “MIC range among strains” value in data set [2] (range over all S. aureus strains and the salts of the peptide) was in the range of 2 to 8 µg/mL.
Regarding “GIGKFLKKAKKFGKAFVKILKK-NH2 [Pexiganan AcO^−]”, the “hemolysis of RBCs at the mean MIC value” in data set [1] (human RBCs, at the mean MIC value, in words) is “ignorable”. The “Mean value of MIC” value in data set [2] was determined as 7.1 µg/mL. In [3], the “stability of the salt form” value is listed as “the most stable even during prolonged storage”.
As to KWKLFKKIGAVLKVL-NH2 [CAMEL TFA^−], the MIC in the data set on S. aureus 017N (MRSA) amounted to 4 µg/mL; in the data set on S. aureus 002S it was 4 µg/mL; against S. aureus 051S it was 2 µg/mL; in the data set on S. aureus 001N (MRSA), 4 µg/mL; against S. aureus 045N, 4 µg/mL; in the data set with S. aureus 015N (MRSA), 4 µg/mL. Besides, the MIC in the data set with S. aureus 002N was 4 µg/mL; against S. aureus ATCC 12598 it was 4 µg/mL; against S. aureus ATCC 25923 it was 8 µg/mL; in the data set on S. aureus 024N (MRSA), “≤ (≤ alone stands for MIC ≤ 0.25 µg/mL)”; in the data set with S. aureus ATCC 6538, 2 µg/mL; against S. aureus 017S (MRSA), 2 µg/mL. Also, the MIC is recorded as 4 µg/mL in the data set on S. aureus 048S; “≤ (≤ alone stands for MIC ≤ 0.25 µg/mL)” with S. aureus 005S; 8 µg/mL in the data set on S. aureus ATCC 9144; 1 µg/mL with S. aureus K50S; 4 µg/mL in the data set on S. aureus 030N; 4 µg/mL against S. aureus ATCC 6538/P. The MIC against S. aureus 001S (MRSA) is reported as 4 µg/mL; with S. aureus 033N, 4 µg/mL; against S. aureus 013S it was “≤ (≤ alone stands for MIC ≤ 0.25 µg/mL)”; against S. aureus 053N, 4 µg/mL; in the data set with S. aureus K46N, 4 µg/mL; against S. aureus 060S, 2 µg/mL. Also, the MIC against S. aureus 043SC (MRSA), with S. aureus K19N, with S. aureus 039N, in the data set with S. aureus 004N (MRSA) and in the data set on S. aureus 051N (MRSA) was 4 µg/mL in each case. The “Mean value of MIC” value in data set [2] is given as not above 3.5 µg/mL. Moreover, the “Mean MIC values” in [2] (mean over 29 S. aureus strains, as repeated in Table 6) is not above 3.5 µg/mL.
